In brackets after ≈: the same amount, converted by molar mass.

One test has as its system S. aureus R33 (MRSA). The format is cell-based. As for the experimental part:
(§1) Susceptibility testing with the exception of Streptococcus pneumoniae was performed by two-fold serial dilutions in Mueller Hinton Broth supplemented with 50 μg/mL Ca^2+. Susceptibility testing of S. pneumoniae was performed by two-fold serial dilutions in Brain-Heart-Infusion Broth supplemented with 50 μg/mL Ca^2+.

Another test concerns S. aureus SH1000. The class given is cell-based. As to the method:
as §1

`CC[C@H](C)[C@@H]1NC(=O)[C@@H]2NC(=O)[C@H](CC(C)C)NC(=O)[C@H](NC(=O)[C@@H]3CSC[C@@H](N)C(=O)N[C@@H](CO)C(=O)NCC(=O)N[C@@H](Cc4c[nH]c5ccccc45)C(=O)N[C@@H](C(C)C)C(=O)N3)[C@H](C)SC[C@H](NC(=O)[C@H](CCC(=O)O)NC1=O)C(=O)NCC(=O)N[C@H]1C(=O)N[C@@H](CC(C)C)C(=O)N[C@@H](C(C)C)C(=O)N[C@@H](CS[C@H]2C)C(=O)N[C@@H](C)C(=O)N[C@H](C(=O)NCCCCCCNS(=O)(=O)c2c(Cl)cc(Cl)cc2Cl)CS[C@H]1C` [Example 27, Deoxyactagardine B [6-(2′,4′,6′-trichlorobenzenesulfonamido)hexylamine]monocarboxamide]: the “MIC in μg/mL against strain S. aureus R33 (MRSA)” value (“MIC in μg/mL … (MRSA)” for short) in the test with S. aureus R33 (MRSA) worked out at 8 µg/mL (≈ 3.61 µM). Also, the “MIC in μg/mL against strain S. aureus SH1000” value with S. aureus SH1000 is 8 µg/mL (≈ 3.61 µM).

With “deoxyactagardine B N-[1-(1-methyl-4-piperidinyl)piperazine]monocarboxamide [reference compound]”, the “MIC against Stapholococcus aureus strain R33” value in the test on S. aureus R33 (MRSA) (strain R33, text b20) is on record as “approximately 64 μL/mL”. In addition, in the test on S. aureus SH1000 (strain SH1000, text b20), the “MIC against Stapholococcus aureus strain SH1000” value is on record as “approximately 64 μL/mL”.

As to “Deoxyactagardine B [3-(2′-aminomethyl-4′-(2″-nitro-4″-chlorophenyl)-furanyl)propylamine]monocarboxamide [Example 33]”, the “MIC in μg/mL … (MRSA)” value against S. aureus R33 (MRSA) is on record as “≦4 μg/mL”. Also, the “MIC in μg/mL against strain S. aureus SH1000” value against S. aureus SH1000 is “≦4 μg/mL”.

Consider “Deoxyactagardine B 19-[4-(4′-chlorophenyl)piperazine]monocarboxamide [Example 4]”, for which, in the test with S. aureus R33 (MRSA), the “MIC in μg/mL … (MRSA)” value is “≦4 μg/mL”. Further, in the test on S. aureus SH1000, the “MIC in μg/mL against strain S. aureus SH1000” value is listed as “≦4 μg/mL”.

As for “Deoxyactagardine B (2,5-dichlorobenzylamine)monocarboxamide [Example 21]”, in the test on S. aureus R33 (MRSA), the “MIC in μg/mL … (MRSA)” value is “≦4 μg/mL”. Moreover, in the test on S. aureus SH1000, the “MIC in μg/mL against strain S. aureus SH1000” value is “≦4 μg/mL”.
